Source: patent US20200071326A1, “TAM KINASE INHIBITORS” (Syros Pharmaceuticals, Inc., priority 2017, published 2020)
Structures can show the parent of a compound that is named as a salt.

Experiments:
FLT3 = molecular target: T1, FLT3 (Homo sapiens, UniProt P36888); assay: IMAP fluorescence polarization kinase assay, FLT3; format: biochemical; details: ATP 2.74 μM, enzyme 2.5 nM, 240 minutes, read-out: FLT3 inhibitory constant (Ki)
T1 sequence (P36888 27-993): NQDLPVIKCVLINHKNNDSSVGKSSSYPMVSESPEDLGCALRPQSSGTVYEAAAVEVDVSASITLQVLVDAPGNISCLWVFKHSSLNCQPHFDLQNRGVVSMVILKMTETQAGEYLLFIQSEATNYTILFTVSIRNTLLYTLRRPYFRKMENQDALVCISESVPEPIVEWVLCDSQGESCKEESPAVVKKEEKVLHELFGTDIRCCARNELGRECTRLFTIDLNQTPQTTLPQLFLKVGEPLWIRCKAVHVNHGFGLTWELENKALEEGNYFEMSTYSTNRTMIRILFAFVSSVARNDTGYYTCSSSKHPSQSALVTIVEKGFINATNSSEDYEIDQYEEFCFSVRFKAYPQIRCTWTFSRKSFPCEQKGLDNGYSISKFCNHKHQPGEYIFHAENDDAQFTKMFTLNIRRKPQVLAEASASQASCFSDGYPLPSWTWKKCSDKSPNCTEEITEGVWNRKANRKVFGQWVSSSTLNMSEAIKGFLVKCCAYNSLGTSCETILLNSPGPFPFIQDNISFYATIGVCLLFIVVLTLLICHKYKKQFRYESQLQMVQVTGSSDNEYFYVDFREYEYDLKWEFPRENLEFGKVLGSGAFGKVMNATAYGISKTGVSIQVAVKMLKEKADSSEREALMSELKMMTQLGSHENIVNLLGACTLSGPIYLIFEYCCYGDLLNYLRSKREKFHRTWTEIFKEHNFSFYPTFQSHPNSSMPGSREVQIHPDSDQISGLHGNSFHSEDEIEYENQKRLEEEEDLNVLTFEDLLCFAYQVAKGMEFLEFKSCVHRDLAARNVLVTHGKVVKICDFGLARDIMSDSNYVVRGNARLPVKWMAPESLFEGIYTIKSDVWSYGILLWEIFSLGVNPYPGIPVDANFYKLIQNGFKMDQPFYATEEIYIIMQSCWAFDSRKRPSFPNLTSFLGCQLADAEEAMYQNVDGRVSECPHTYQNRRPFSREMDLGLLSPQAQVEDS
Procedure: (§1) Activities of compounds against each of TYRO3, AXL, and MERTK as well as against FLT3, were determined using an immobilized metal ion affinity-based fluorescence polarization (“IMAP”) assay. A fluorescently-labeled substrate peptide was phosphorylated in the kinase reaction, after which a binding solution containing large trivalent metal-based nanoparticles was added and the phosphorylated substrate binds to these beads. This reduces the rotational speed of the substrate which is then detected using fluorescence polarization as a read-out.
(§2) The substrates used for each enzyme are as follows: AXL: 5F1-KKKKEEIYFFFG-NH2(SEQ ID NO:1); FLT3: 5F1-KKKKEEIYFFF-NH2 (SEQ ID NO:2); MERTK: 5F1-EFPIYDFLPAKKK-NH2 (SEQ ID NO:3); and TYRO3: 5F1-EFPIYDFLPAKKK-NH2 (SEQ ID NO:4).
(§3) This assay was performed in a 384-well, polystyrene microplate in a final volume of 8 μl. Substrate (final concentration=400 nM), ATP (final concentrations=24.7μM for AXL; 2.74 μM for FLT3; 2.69 μM for MERTK; and 54.0 μM for TYRO3), compounds and enzyme (final concentrations=2.5 nM for AXL, FLT3 and TYRO3; 1.5 nM for MERTK) were pipetted in this order into the appropriate reaction buffer (AXL: 50 mM HEPES, pH 8.0, 1 mM DTT, 10 mM MgCl2, 0.01% BRU35, 0.01% Triton X-100; FLT3: 50 mM HEPES, pH 8.0, 1 mM DTT, 10 mM MgCl2, 0.01% Triton X-100, 0.01% NP40; MERTK/TYRO3: 50 mM HEPES, pH 8.0, 1 mM DTT, 10 mM MgCl2, 0.01% Triton X-100) and incubated at room temperature for varying times (AXL, FLT3 and MERTK: 240 minutes; TYRO3: 60 minutes). IMAP binding solution was then dispensed, the plate incubated for 60 minutes at room temperature and the fluorescence polarization measured. Data were analyzed using XLfit.

AXL = molecular target: T2, AXL (Homo sapiens, UniProt P30530); assay: IMAP fluorescence polarization kinase assay, AXL; format: biochemical; details: ATP 24.7 μM, enzyme 2.5 nM, 240 minutes, read-out: AXL inhibitory constant (Ki)
T2 sequence (P30530 26-894): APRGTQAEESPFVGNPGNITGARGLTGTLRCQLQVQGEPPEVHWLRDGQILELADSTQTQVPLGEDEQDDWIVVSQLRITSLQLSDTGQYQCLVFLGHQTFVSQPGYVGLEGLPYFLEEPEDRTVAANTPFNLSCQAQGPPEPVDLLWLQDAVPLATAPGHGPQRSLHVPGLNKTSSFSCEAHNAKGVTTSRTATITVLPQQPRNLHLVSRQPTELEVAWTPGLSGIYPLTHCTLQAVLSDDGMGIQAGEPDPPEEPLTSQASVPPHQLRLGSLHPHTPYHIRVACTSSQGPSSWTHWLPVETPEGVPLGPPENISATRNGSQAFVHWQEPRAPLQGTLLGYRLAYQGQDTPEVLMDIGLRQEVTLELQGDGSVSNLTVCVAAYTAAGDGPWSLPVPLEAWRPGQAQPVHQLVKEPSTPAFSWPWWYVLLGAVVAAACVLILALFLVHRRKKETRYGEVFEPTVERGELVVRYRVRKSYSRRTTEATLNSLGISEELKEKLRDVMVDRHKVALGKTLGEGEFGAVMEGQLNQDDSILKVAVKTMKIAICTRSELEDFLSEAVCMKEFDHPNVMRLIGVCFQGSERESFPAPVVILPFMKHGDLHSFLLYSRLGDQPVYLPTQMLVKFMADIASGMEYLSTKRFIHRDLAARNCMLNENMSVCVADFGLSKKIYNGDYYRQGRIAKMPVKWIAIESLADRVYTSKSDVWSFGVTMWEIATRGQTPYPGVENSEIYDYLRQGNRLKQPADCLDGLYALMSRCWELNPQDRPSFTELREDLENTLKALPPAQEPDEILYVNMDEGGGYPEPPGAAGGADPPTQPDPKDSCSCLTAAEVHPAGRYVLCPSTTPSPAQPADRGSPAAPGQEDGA
Procedure: as §1, §2, §3

| SMILES | Ki (FLT3) [nM] | Ki (AXL) [nM] |
| --- | --- | --- |
| CCCc1cc2c(N[C@H]3CC[C@H](O)CC3)c(C(=O)NC3CCN(c4ncccn4)CC3)cnc2[nH]1 [Compound 104] | 100 to 1000 | 1000 to 10000 |
| CCCc1cc2c(N[C@H]3CC[C@H](N)CC3)c(-c3nccs3)cnc2[nH]1 [Compound 117] | < 100 | 100 to 1000 |
| CCCc1cc2c(N[C@H]3CC[C@H](N)CC3)c(-c3ccccn3)cnc2[nH]1 [Compound 113] | < 100 | 1000 to 10000 |
| CCCc1cc2c(N[C@H]3CC[C@H](N)CC3)c(C(=O)Nc3ccc(F)cc3)cnc2[nH]1 [Compound 100, 4-(((1r,4r)-4-aminocyclohexyl)amino)-N-(4-fluorophenyl)-2-propyl-1H-pyrrolo [2,3-b]pyridine-5-carboxamide hydrochloride] | < 100 | 1000 to 10000 |
| CCCc1cc2c(N[C@H]3CC[C@H](N)CC3)c(-c3ccc(C)nn3)cnc2[nH]1 [Compound 127] | < 100 | 100 to 1000 |
| CCCc1cc2c(N[C@H]3CC[C@H](N)CC3)c(Br)cnc2[nH]1 [Compound 142] | 100 to 1000 | 100 to 1000 |
| CCC(C)c1cc2c(N[C@H]3CC[C@H](O)CC3)c(-c3ccc(S(=O)(=O)N4CCOCC4)cn3)cnc2[nH]1 (stereo partly shown) [Compound 159] | > 10000 | > 10000 |
| CCCc1cc2c(N[C@H]3CC[C@H](N)CC3)c(C(=O)NC)cnc2[nH]1 [Compound 139] | < 100 | 100 to 1000 |
| CC(O)c1cc2c(N[C@H]3CC[C@H](O)CC3)c(-c3ccc(CN4CCOCC4)cn3)cnc2[nH]1 (stereo partly shown) [Compound 143] | < 100 | 1000 to 10000 |
| CCCCCc1cc2c(N[C@H]3CC[C@H](N)CC3)c(C(=O)NCc3ccc(-n4ccnc4)cc3)cnc2[nH]1 [Compound 133] | 100 to 1000 | 100 to 1000 |
| CCCc1cc2c(N[C@H]3CC[C@H](N)CC3)c(-c3ccc(N)cn3)cnc2[nH]1 [Compound 120] | < 100 | 1000 to 10000 |
| CCCc1cc2c(N[C@H]3CC[C@H](N)CC3)c(C(=O)OC)cnc2[nH]1 [Compound 140] | < 100 | 1000 to 10000 |
| CCCc1cc2c(N[C@H]3CC[C@H](N)CC3)c(-c3ccnc(N)n3)cnc2[nH]1 [Compound 123] | < 100 | < 100 |
| CC(O)c1cc2c(N[C@H]3CC[C@H](N)CC3)c(C(=O)Nc3ccc(F)cc3)cnc2[nH]1 (stereo partly shown) [Compound 148] | 100 to 1000 | > 10000 |
| CCCc1cc2c(N[C@H]3CC[C@H](N)CC3)c(-c3ccc(S(=O)(=O)N4CCOCC4)cn3)cnc2[nH]1 [Compound 115] | < 100 | < 100 |
| N[C@H]1CC[C@H](Nc2c(C(=O)NCc3ccc(-n4ccnc4)cc3)cnc3[nH]c(C4CCCC4)cc23)CC1 [Compound 126] | < 100 | 100 to 1000 |
| CCCc1cc2c(N[C@H]3CC[C@H](N)CC3)c(-c3cc(N)ccn3)cnc2[nH]1 [Compound 131] | < 100 | 1000 to 10000 |
| CCCc1cc2c(N[C@H]3CC[C@H](N)CC3)c(-c3ccc(F)cn3)cnc2[nH]1 [Compound 114] | < 100 | 100 to 1000 |
| CCc1cc2c(N[C@H]3CC[C@H](O)CC3)c(-c3ccc(CN4CCOCC4)cn3)cnc2[nH]1 [Compound 144] | < 100 | 100 to 1000 |
| CCCc1cc2c(N[C@H]3CC[C@H](N)CC3)c(-c3cnn(C)c3)cnc2[nH]1 [Compound 108, (1r,4r)-N1-(5-(1-methyl-1H-pyrazol-4-yl)-2-propyl-1H-pyrrolo[2,3-b]pyridine-4-yl)cyclohexane-1,4-diamine hydrochloride] | 100 to 1000 | 1000 to 10000 |
| CCC(C)c1cc2c(N[C@H]3CC[C@H](N)CC3)c(C(=O)Nc3ccc(F)cc3)cnc2[nH]1 (stereo partly shown) [Compound 134] | 100 to 1000 | 1000 to 10000 |
| CCC(C)c1cc2c(N[C@H]3CC[C@H](O)CC3)c(C(=O)NC3CCN(c4ncccn4)CC3)cnc2[nH]1 (stereo partly shown) [Compound 157] | > 10000 | > 10000 |
| N[C@H]1CC[C@H](Nc2c(C(=O)NCc3ccc(-n4ccnc4)cc3)cnc3[nH]c(-c4ccccc4)cc23)CC1 [Compound 110] | 1000 to 10000 | 1000 to 10000 |
